This is an account of results in US20220402916A1, “SMALL MOLECULE INHIBITORS OF KRAS G12C MUTANT” (Merck Sharp & Dohme Corp., priority 2019, published 2022).

The subject of one assay is NCI-H358 cells. Kind of assay: Cellular phospho-ERK assay. In kind it is cell-based. The following applies: Homo sapiens, NCI-H358, 2 h, NCI-H358 cells; 2 hour incubation; ratio of p-Erk vs total Erk; read-out: IC50. How it is done: NCI-H358 cells (ATCC® CRL-5807™) were cultured in T150 flask in growth medium (RPMI medium 1640-GlutaMAX™-1 (ThermoFisher Scientific 61870) containing 10% fetal bovine serum (ThermoFisher Scientific 10091148)). The cells were harvested in growth medium after TrypLE (ThermoFisher scientific 12604021) digestion and were seeded in 384-well collagen coated cell culture plate (Corning 356702) at a density of 15,000 cells/well, and incubated at 37° C., 5% CO2 overnight. The compound dose-response titrations were prepared and appropriate amounts of compounds were dispensed in 384-well intermediate plate using Echo 550 liquid handler. RPMI medium 1640-GlutaMAX™-I were added to the intermediate plate and transferred to 384-well cell culture plate, which was incubated at 37° C., 5% CO2 for 2 hours. After removal of medium from the plate, cells were lysed in lysis buffer from Alpha SureFire® Ultra™ Multiplex p-Erk and total Erk assay kit (PerkinElmer MPSU-PTERK) containing Halt™ Protease and Phosphotase inhibitor cocktail (ThermoFisher Scientific 78446) at room temperature with constant shaking at 300 rpm for 30 minutes. The cell lysates were then transferred to OptiPlate-384 plate (PerkinElmer 6005620) and the phosphorylation of Erk and total Erk levels were detected by Alpha SureFire Ultra Multiplex p-Erk kit (PerkinElmer MPSU-PTERK) following the manufacturer's protocol. Assay plates were read on an EnVision Multimode Plate Reader (PerkinElmer) and the ratio of p-Erk vs total Erk in each well was used as the final readout. Dose response curves were analyzed using a 4-parameter logistic model to calculate IC50 values using spotfire software.

Assay [1] has as its target T1, Biotinylated KRAS G12C protein (Homo sapiens, UniProt P01116, C118S/C51S/C80L/G12C).
T1 construct: 183 amino acids; biotin on K10
Kind of assay: SOS-catalyzed nucleotide exchange assay. The class given is biochemical. The following applies: apparent potency; preincubation time of 60 minutes prior to addition of SOS.

T1 sequence (P01116 with tags, fused parts or gaps isoform P01116-2 G12C/C51S/C80L/C118S): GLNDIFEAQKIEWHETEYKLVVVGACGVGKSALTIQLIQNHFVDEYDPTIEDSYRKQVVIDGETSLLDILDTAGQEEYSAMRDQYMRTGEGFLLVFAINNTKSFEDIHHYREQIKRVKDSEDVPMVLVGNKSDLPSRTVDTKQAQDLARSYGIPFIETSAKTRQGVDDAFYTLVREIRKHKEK

For orientation: IC50 means the concentration that inhibits the measured activity by half. For `C=CC(=O)N1CCN(c2cc(C(=O)NCC3(N)CCCCC3)nc3c2CCN(c2cccc4cccc(C)c24)C3)C[C@@H]1CC#N` [Compound 89, (S)-4-(4-acryloyl-3-(cyanomethyl)piperazin-1-yl)-N-((1-aminocyclohexyl)methyl)-7-(8-methylnaphthalen-1-yl)-5,6,7,8-tetrahydro-1,7-naphthyridine-2-carboxamide], the IC50 in the assay with NCI-H358 cells was found to be 5680 nM; in assay [1], 15 nM.
The matching figures for `C=CC(=O)N1CCN(c2cc(C(=O)N[C@H](C)CN3CC(O)(C(F)(F)F)C3)nc3c2CCN(c2cccc4cccc(C)c24)C3)C[C@@H]1CC#N` [Compound 69, 4-((S)-4-acryloyl-3-(cyanomethyl)piperazin-1-yl)-N-((R)-1-(3-hydroxy-3-(trifluoromethyl)azetidin-1-yl)propan-2-yl)-7-(8-methylnaphthalen-1-yl)-5,6,7,8-tetrahydro-1,7-naphthyridine-2-carboxamide]: 2000 nM and 22 nM.
As to `C=CC(=O)N1CCN(c2cc(C(=O)N[C@H](C)CN(C)C)nc3c2CCN(c2c(Cl)c(C)cc4[nH]ncc24)C3)CC1` [Compound 83, (R)-4-(4-acryloylpiperazin-1-yl)-7-(5-chloro-6-methyl-1H-indazol-4-yl)-N-(1-(dimethylamino)propan-2-yl)-5,6,7,8-tetrahydro-1,7-naphthyridine-2-carboxamide], the 50% inhibitory concentration (IC50) in the assay with NCI-H358 cells worked out at 1600 nM; in assay [1], 90 nM.
Regarding `C=CC(=O)N1CCN(c2cc(C(=O)Nc3ccccc3N3CCNCC3)nc3c2CCN(c2cccc4cccc(C)c24)C3)C[C@@H]1CC#N` [Compound 93, (S)-4-(4-acryloyl-3-(cyanomethyl)piperazin-1-yl)-7-(8-methylnaphthalen-1-yl)-N-(2-(piperazin-1-yl)phenyl)-5,6,7,8-tetrahydro-1,7-naphthyridine-2-carboxamide], the half-maximal inhibitory concentration (IC50) with NCI-H358 cells is 24400 nM; in assay [1] it was 1840 nM.
The matching figures for `C=CC(=O)N1CCN(c2cc(C(=O)NC[C@@H]3CC(F)(F)CN3)nc3c2CCN(c2cccc4cccc(C)c24)C3)C[C@@H]1CC#N` [Compound 80, 4-((S)-4-acryloyl-3-(cyanomethyl)piperazin-1-yl)-N-(((S)-4,4-difluoropyrrolidin-2-yl)methyl)-7-(8-methylnaphthalen-1-yl)-5,6,7,8-tetrahydro-1,7-naphthyridine-2-carboxamide]: 6360 nM and 91 nM.
For the compound `C=CC(=O)N1CCN(c2cc(C(=O)NCCC3CCCCN3)nc3c2CCN(c2cccc4cccc(C)c24)C3)C[C@@H]1CC#N` (mixture of isomers) [Compound 105, 4-((S)-4-acryloyl-3-(cyanomethyl)piperazin-1-yl)-7-(8-methylnaphthalen-1-yl)-N-(2-((R)-piperidin-2-yl)ethyl)-5,6,7,8-tetrahydro-1,7-naphthyridine-2-carboxamide, as a mixture with 4-((S)-4-acryloyl-3-(cyanomethyl)piperazin-1-yl)-7-(8-methylnaphthalen-1-yl)-N-(2-((S)-piperidin-2-yl)ethyl)-5,6,7,8-tetrahydro-1,7-naphthyridine-2-carboxamide], the half-maximal inhibitory concentration (IC50) in the assay with NCI-H358 cells stood at 4890 nM; in assay [1], 17 nM.
For `C=CC(=O)N1CCN(c2cc(C(=O)N[C@H]3CNCC[C@H]3F)nc3c2CCN(c2cccc4cccc(C)c24)C3)C[C@@H]1CC#N` [Compound 103, 4-((S)-4-acryloyl-3-(cyanomethyl)piperazin-1-yl)-N-((3S,4R)-4-fluoropiperidin-3-yl)-7-(8-methylnaphthalen-1-yl)-5,6,7,8-tetrahydro-1,7-naphthyridine-2-carboxamide], the values for the 50% inhibitory concentration (IC50) (with NCI-H358 cells; in assay [1]) were 14900 nM and 26 nM, respectively.
`C=CC(=O)N1CCN(c2cc(C(=O)NCC3(N)CCCCCC3)nc3c2CCN(c2cccc4cccc(C)c24)C3)C[C@@H]1CC#N` [Compound 91, (S)-4-(4-acryloyl-3-(cyanomethyl)piperazin-1-yl)-N-((1-aminocycloheptyl)methyl)-7-(8-methylnaphthalen-1-yl)-5,6,7,8-tetrahydro-1,7-naphthyridine-2-carboxamide]: the values for the IC50 (in the assay on NCI-H358 cells; in assay [1]) were 7860 nM and 12 nM, respectively.
With `C=CC(=O)N1CCN(c2cc(C(=O)NCCC3(N)CCCCC3)nc3c2CCN(c2cccc4cccc(C)c24)C3)C[C@@H]1CC#N` [Compound 92, (S)-4-(4-acryloyl-3-(cyanomethyl)piperazin-1-yl)-N-(2-(1-aminocyclohexyl)ethyl)-7-(8-methylnaphthalen-1-yl)-5,6,7,8-tetrahydro-1,7-naphthyridine-2-carboxamide], the concentration for half-maximal inhibition (IC50) in the assay with NCI-H358 cells turned out to be 7200 nM; in assay [1] it was 20 nM.
For the compound `C=CC(=O)N1CCN(c2cc(C(=O)NCC3CCCCN3)nc3c2CCN(c2cccc4cccc(C)c24)C3)C[C@@H]1CC#N` (mixture of isomers) [Compound 99, 4-((S)-4-acryloyl-3-(cyanomethyl)piperazin-1-yl)-7-(8-methylnaphthalen-1-yl)-N-(((R)-piperidin-2-yl)methyl)-5,6,7,8-tetrahydro-1,7-naphthyridine-2-carboxamide, as a mixture with 4-((S)-4-acryloyl-3-(cyanomethyl)piperazin-1-yl)-7-(8-methylnaphthalen-1-yl)-N-(((S)-piperidin-2-yl)methyl)-5,6,7,8-tetrahydro-1,7-naphthyridine-2-carboxamide], the concentration for half-maximal inhibition (IC50) in the assay with NCI-H358 cells worked out at 1740 nM; in assay [1] it was 8.3 nM.
Take `C=CC(=O)N1CCN(c2cc(C(=O)NC3(CC)CCNC3)nc3c2CCN(c2cccc4cccc(C)c24)C3)C[C@@H]1CC#N` (mixture of isomers) [Compound 101, 4-((S)-4-acryloyl-3-(cyanomethyl)piperazin-1-yl)-N-((R)-3-ethylpyrrolidin-3-yl)-7-(8-methylnaphthalen-1-yl)-5,6,7,8-tetrahydro-1,7-naphthyridine-2-carboxamide, as a mixture with 4-((S)-4-acryloyl-3-(cyanomethyl)piperazin-1-yl)-N-((S)-3-ethylpyrrolidin-3-yl)-7-(8-methylnaphthalen-1-yl)-5,6,7,8-tetrahydro-1,7-naphthyridine-2-carboxamide]: the 50% inhibitory concentration (IC50) in the assay with NCI-H358 cells came out at 1800 nM; in assay [1], 4.5 nM.
On the same counts, the results for `C=CC(=O)N1CCN(c2c(C)c(C(=O)N[C@H](C)CN(C)C)nc3c2CCN(c2cccc4cccc(C)c24)C3)C[C@@H]1CC#N` (racemic) [Compound 85, 4-((S)-4-acryloyl-3-(cyanomethyl)piperazin-1-yl)-N—((R)-1-(dimethylamino)propan-2-yl)-3-methyl-7-(8-methylnaphthalen-1-yl)-5,6,7,8-tetrahydro-1,7-naphthyridine-2-carboxamide] are 3550 nM and 180 nM.
`C=CC(=O)N1CCN(c2cc(C(=O)NCC3CCCNC3)nc3c2CCN(c2cccc4cccc(C)c24)C3)C[C@@H]1CC#N` (mixture of isomers) [Compound 106, 4-((S)-4-acryloyl-3-(cyanomethyl)piperazin-1-yl)-7-(8-methylnaphthalen-1-yl)-N-(((R)-piperidin-3-yl)methyl)-5,6,7,8-tetrahydro-1,7-naphthyridine-2-carboxamide, as a mixture with 4-((S)-4-acryloyl-3-(cyanomethyl)piperazin-1-yl)-7-(8-methylnaphthalen-1-yl)-N-(((S)-piperidin-3-yl)methyl)-5,6,7,8-tetrahydro-1,7-naphthyridine-2-carboxamide]: the IC50 stood at 5240 nM in the assay on NCI-H358 cells and 33 nM in assay [1].
With `C=CC(=O)N1CCN(c2cc(C(=O)NC[C@H]3CC(F)(F)CN3)nc3c2CCN(c2cccc4cccc(C)c24)C3)C[C@@H]1CC#N` [Compound 81, 4-((S)-4-acryloyl-3-(cyanomethyl)piperazin-1-yl)-N-(((R)-4,4-difluoropyrrolidin-2-yl)methyl)-7-(8-methylnaphthalen-1-yl)-5,6,7,8-tetrahydro-1,7-naphthyridine-2-carboxamide], the figures for the IC50 (in the assay with NCI-H358 cells; in assay [1]) were 2970 nM and 29 nM, respectively.
On to `C=CC(=O)N1CCN(c2cc(C(=O)NCC3CCCN3C)nc3c2CCN(c2cccc4cccc(C)c24)C3)C[C@@H]1CC#N` (mixture of isomers) [Compound 82, 4-((S)-4-acryloyl-3-(cyanomethyl)piperazin-1-yl)-7-(8-methylnaphthalen-1-yl)-N-(((R)-1-methylpyrrolidin-2-yl)methyl)-5,6,7,8-tetrahydro-1,7-naphthyridine-2-carboxamide, as a mixture with 4-((S)-4-acryloyl-3-(cyanomethyl)piperazin-1-yl)-7-(8-methylnaphthalen-1-yl)-N-(((S)-1-methylpyrrolidin-2-yl)methyl)-5,6,7,8-tetrahydro-1,7-naphthyridine-2-carboxamide], for which the IC50 in the assay with NCI-H358 cells came to 324 nM.
